Measurements: paper PMC8649774, “A New Class of Cell Wall-Recycling L,D-Carboxypeptidase Determines β-Lactam Susceptibility and Morphogenesis in Acinetobacter baumannii” (mBio, 2021)

Target: T1, ElsL (ElsLHis) (Acinetobacter baumannii, UniProt A0ABX6CN83)
T1 construct: gene FQU82_03167; leaderless cytoplasmic YkuD-domain protein, C-terminal 6xHis (pET28b), expressed in E. coli BL21(DE3), Ni-NTA purified with TCEP
Experiment: UPLC-MS of reaction products
Type: biochemical
Details: 100 mM Tris-HCl, 37 °C, 2 h, 10 ng enzyme; M4 purified from Caulobacter crescentus sacculi

CC(=O)N[C@H]1[C@H](O[C@H]2[C@H](O[C@H](C)C(=O)N[C@@H](C)C(=O)N[C@H](CCC(=O)N[C@@H](CCC[C@@H](N)C(=O)O)C(=O)N[C@H](C)C(=O)O)C(=O)O)[C@@H](NC(C)=O)C(O)O[C@@H]2CO)O[C@H](CO)[C@@H](O)[C@@H]1O (stereo partly shown) [M4, murotetrapeptide]
UPLC-MS of reaction products: ElsL completely cleaved the M4 substrate to the disaccharide tripeptide (M3)
